Structures are written as SMILES.

The experiment deals with T1, Adrenergic receptor alpha-1 (Rattus norvegicus, UniProt P15823+P23944+P43140).
T1 sequence (P15823 whole entry): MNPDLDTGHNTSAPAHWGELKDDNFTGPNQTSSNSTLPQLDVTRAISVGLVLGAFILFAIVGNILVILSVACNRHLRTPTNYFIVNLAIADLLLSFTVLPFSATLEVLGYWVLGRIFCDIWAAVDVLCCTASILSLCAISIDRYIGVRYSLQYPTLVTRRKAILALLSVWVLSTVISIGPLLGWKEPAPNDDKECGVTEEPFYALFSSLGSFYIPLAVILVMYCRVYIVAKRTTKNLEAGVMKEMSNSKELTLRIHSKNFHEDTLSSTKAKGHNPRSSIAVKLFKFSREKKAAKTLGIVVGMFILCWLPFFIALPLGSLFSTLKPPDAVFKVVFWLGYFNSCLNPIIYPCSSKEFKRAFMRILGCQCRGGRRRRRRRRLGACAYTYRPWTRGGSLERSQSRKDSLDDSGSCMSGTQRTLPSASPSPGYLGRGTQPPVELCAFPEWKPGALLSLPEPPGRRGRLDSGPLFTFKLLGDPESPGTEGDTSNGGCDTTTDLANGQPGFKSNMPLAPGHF
T1 sequence (P23944 whole entry): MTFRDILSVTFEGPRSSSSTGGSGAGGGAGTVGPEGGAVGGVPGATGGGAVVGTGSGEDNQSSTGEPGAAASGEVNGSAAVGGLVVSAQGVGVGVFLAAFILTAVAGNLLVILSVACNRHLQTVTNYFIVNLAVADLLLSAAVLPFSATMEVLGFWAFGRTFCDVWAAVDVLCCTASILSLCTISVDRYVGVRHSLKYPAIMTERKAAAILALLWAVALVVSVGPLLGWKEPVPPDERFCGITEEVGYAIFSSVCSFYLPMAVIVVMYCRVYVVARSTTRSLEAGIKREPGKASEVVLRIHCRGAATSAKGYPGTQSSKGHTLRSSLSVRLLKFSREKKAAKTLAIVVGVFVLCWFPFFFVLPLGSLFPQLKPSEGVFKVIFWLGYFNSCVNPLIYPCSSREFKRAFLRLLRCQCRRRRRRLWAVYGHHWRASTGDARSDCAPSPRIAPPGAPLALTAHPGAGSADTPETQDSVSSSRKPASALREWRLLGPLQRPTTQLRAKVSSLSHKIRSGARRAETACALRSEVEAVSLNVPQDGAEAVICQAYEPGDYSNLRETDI
T1 sequence (P43140 whole entry): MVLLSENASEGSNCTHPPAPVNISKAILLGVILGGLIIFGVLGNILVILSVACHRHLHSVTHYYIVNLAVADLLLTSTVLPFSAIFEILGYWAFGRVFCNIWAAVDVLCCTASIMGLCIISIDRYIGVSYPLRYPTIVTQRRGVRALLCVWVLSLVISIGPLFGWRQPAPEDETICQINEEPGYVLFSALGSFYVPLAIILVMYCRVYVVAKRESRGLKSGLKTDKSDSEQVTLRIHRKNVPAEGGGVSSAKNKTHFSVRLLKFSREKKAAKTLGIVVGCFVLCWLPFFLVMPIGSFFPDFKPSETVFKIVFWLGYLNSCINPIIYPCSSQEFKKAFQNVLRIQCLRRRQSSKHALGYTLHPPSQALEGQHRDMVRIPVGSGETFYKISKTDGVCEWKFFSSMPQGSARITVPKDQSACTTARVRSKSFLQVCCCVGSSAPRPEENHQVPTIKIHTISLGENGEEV
Description: Compound was evaluated for inhibition of [3H]prazosin binding to Alpha-1 adrenergic receptor in rat forebrain homogenate. The format is tissue-based, Brain.
As usually defined, the Ki is the dissociation constant of the complex between target and ligand, obtained from inhibition or displacement. High values mean a looser hold on the target, low ones a stronger hold on the target. Molecule `C[C@H](N)[C@H](O)c1ccc(O)c(O)c1` (stereo in doubt; form 1) [LEVONORDEFRIN] gave a Ki of 3.6 µM.

For `CN[C@@H](C)[C@H](O)c1ccc(O)c(O)c1`, the Ki amounted to 146 µM.

The molecule `CN[C@H](C)[C@@H](O)c1ccc(O)c(O)c1` yielded a Ki of 11 µM.

For the molecule `C[C@H](N)[C@H](O)c1ccc(O)c(O)c1` (stereo in doubt; form 2) [LEVONORDEFRIN], the Ki was determined as 2315 µM.

As to `C[C@H](N)[C@H](O)c1ccc(O)c(O)c1` (stereo in doubt; 1) [LEVONORDEFRIN], the Ki came to 7.3 µM.

As for `CNC(C)C(O)c1ccc(O)c(O)c1` (stereo unspecified) [DIOXIFEDRINE], the Ki is 28 µM.

For the origin of these results see ChEMBL document CHEMBL1121888, “(alpha S)-erythro-alpha-methylepinephrine: preparation and stereoselective binding to adrenergic receptors in rat forebrain” (J Med Chem, 1981).
